Source: patent publication US20170275287A1, “NOVEL N2, N4, N7, 6-TETRASUBSTITUTED PTERIDINE-2,4,7-TRIAMINE AND 2, 4, 6, 7-TETRASUBSTITUTED PTERIDINE COMPOUNDS AND METHODS OF SYNTHESIS AND USE THEREOF” (Janus Biotherapeutics, Inc., priority 2014, published 2017)
Read-outs that look alike come from different tables or passages of the source.

Key:
TLR7 = target: T1, TLR7 (Homo sapiens, UniProt Q9NYK1); assay: Antagonist/agonist competitive inhibition cross titration (TLR7 agonist JB6011); type: cell-based; conditions: antagonist 10 uM to 4 nM vs agonist 0.12-3.3 μM; preliminary, one assay
T1 sequence (Q9NYK1 27-1049): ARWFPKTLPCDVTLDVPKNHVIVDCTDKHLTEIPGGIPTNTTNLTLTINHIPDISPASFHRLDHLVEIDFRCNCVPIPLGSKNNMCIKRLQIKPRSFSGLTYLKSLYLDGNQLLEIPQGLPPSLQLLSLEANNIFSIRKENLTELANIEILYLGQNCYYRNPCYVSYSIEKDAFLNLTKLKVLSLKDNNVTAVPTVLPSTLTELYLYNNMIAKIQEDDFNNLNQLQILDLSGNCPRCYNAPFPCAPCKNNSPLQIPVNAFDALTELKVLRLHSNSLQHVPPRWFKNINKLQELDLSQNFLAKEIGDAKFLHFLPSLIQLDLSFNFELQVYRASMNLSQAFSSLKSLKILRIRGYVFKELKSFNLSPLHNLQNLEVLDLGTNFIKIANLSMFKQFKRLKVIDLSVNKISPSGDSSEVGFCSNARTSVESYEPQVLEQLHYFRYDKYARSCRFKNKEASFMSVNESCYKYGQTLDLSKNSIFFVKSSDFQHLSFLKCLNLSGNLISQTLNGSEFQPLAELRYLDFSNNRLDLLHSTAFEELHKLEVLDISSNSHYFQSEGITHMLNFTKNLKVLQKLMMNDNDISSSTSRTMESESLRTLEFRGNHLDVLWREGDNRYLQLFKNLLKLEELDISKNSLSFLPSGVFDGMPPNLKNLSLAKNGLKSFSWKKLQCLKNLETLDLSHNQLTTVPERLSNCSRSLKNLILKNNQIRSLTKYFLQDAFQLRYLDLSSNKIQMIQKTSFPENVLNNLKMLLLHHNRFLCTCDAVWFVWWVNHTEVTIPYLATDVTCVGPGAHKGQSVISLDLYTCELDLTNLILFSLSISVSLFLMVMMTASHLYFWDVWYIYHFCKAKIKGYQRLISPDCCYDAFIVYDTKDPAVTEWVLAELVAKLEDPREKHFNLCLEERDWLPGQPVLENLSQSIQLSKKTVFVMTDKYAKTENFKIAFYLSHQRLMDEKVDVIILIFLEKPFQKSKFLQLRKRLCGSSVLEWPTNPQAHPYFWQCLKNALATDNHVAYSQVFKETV
Experimental: In preliminary results (i.e., one assay result—repeat assays in process), a cross titration of antagonist versus agonist was performed to determine the form of antagonist binding. JB6121 was titrated from 10 uM to 4 nM against various concentrations of challenge agonist. The small molecule TLR7 agonist JB6011 was used. The graph below, while crude, implies that the inhibition of the TLR7 agonist by JB6121 is competitive in nature due to the parallel tracking of the curves as the agonist dose is increased. The agonist range for this experiment was between 0.12 and 3.3 μM or about a 30-fold range.

LogD, pH 7.4 = type: physicochemical
[1] = PK/PD study: whole blood JB6121 after 7 days oral dosing; type: in vivo, Sprague-Dawley rats; conditions: for AUC(0-t)/D / Cmax/D / AUC(0-t) / Cmax / Tmax / AUC / half-life: Day 7; for AUC(0-t) / Cmax / Tmax / concentration at 2 h / concentration at 3 h / concentration at 4 h / concentration at 5 h / AUC / half-life: Sprague-Dawley, rat, whole blood; for concentration at 2 h: Day 7, 2 h; for concentration at 3 h: Day 7, 3 h; for concentration at 4 h: Day 7, 4 h; for concentration at 5 h: Day 7, 5 h; for AUC: read-out: AUC Extrap; for half-life: read-out: t½ (converted)
Experimental: The objective of this study was to collect serum following ODN CpG 1668 administration and to determine the pharmacokinetics of JB6121 following oral administration to Sprague-Dawley rats for 7 days. There was a pre-test to establish the appropriate agonist dose for a TLR9 ligand, CpG DNA ODN 1668, in rats using serum IL-12 as the monitored cytokine, groups 1-3, see table 6. Whole blood samples for serum were collected terminally from each animal 3 hours following dosing with ODN CpG 1668. Serum IL-12 was determined by ELISA, data not shown. An agonist dose of lmg/kg was selected for the next phase of the study. For groups administered JB6121 (Groups 4-7), formulations were corrected for base/salt components and not corrected for purity. On the initial day of dose administration, JB6121 formulations were prepared using sterile PBS to the adjusted target dosing concentrations using a factor of 0.8265 to correct for salt content. Dosing was performed as outlined in the following Table 9.
Animals were assigned to four groups (groups 4-7) and administered JB6121 at 0.39, 1.56, 6.25, or 25 mg/kg in a volume of […] once per day by oral gavage for 7 days. On Day 7, two hours following the JB6121 dose (approximate Cmax), ODN CpG 1668 was administered as a single IP dose at 1 mg/kg in a volume of 1 mL/kg. Whole blood samples for bioanalysis and serum samples for serum cytokine analysis were collected by tail vein bleeding or terminally by cardiac puncture at t=2, 3, 4 and 5 h.

Q: With `CN1CCN(c2nc(NCCN3CCOCC3)c3nc(Cl)c(NCCN4CCOCC4)nc3n2)CC1` [JB6121, 6-chloro-2-(4-methylpiperazin-1-yl)-N^4,N^7-bis(2-morpholinoethyl)pteridine-4,7-diamine] as the compound, how does the “form of antagonist binding: inhibition of the TLR7 agonist JB6011” value (TLR7) read?
A: competitive

Q: And the logD (LogD, pH 7.4)?
A: 0.995

Q: What about the “AUC(0-t)/D” value ([1]; 0.39 mg/kg PO daily x7 days) of the same compound?
A: 24.8 ng · h/mL/mg/kg/day

Q: And the Cmax/D ([1]; 0.39 mg/kg PO daily x7 days)?
A: 13.4 ng/mL/mg/kg/day

Q: What about the “AUC(0-t)/D” value ([1]; 1.56 mg/kg PO daily x7 days) of the same compound?
A: 13.6 ng · h/mL/mg/kg/day

Q: And the Cmax/D ([1]; 1.56 mg/kg PO daily x7 days)?
A: 6.96 ng/mL/mg/kg/day

Q: And the “AUC(0-t)/D” value ([1]; 6.25 mg/kg PO daily x7 days)?
A: 34.8 ng · h/mL/mg/kg/day

Q: And the Cmax/D ([1]; 6.25 mg/kg PO daily x7 days)?
A: 15.2 ng/mL/mg/kg/day

Q: And the “AUC(0-t)/D” value ([1]; 25 mg/kg PO daily x7 days)?
A: 63 ng · h/mL/mg/kg/day

Q: And the Cmax/D ([1]; 25 mg/kg PO daily x7 days)?
A: 28.4 ng/mL/mg/kg/day

Q: What about the AUC(0-t) ([1]; 0.39 mg/kg PO daily x7 days) of the same compound?
A: 9.68 ng·h/mL

Q: What about the Cmax ([1]; 0.39 mg/kg PO daily x7 days) of the same compound?
A: 5.24 ng/mL

Q: And the Tmax ([1]; 0.39 mg/kg PO daily x7 days)?
A: 3.8 h

Q: What about the concentration at 2 h ([1]; 0.39 mg/kg PO daily x7 days) of the same compound?
A: 2.5 ng/mL

Q: And the concentration at 3 h ([1]; 0.39 mg/kg PO daily x7 days)?
A: 3.88 ng/mL

Q: And the concentration at 4 h ([1]; 0.39 mg/kg PO daily x7 days)?
A: 5.57 ng/mL

Q: And the concentration at 5 h ([1]; 0.39 mg/kg PO daily x7 days)?
A: 6.47 ng/mL

Q: And the AUC ([1]; 0.39 mg/kg PO daily x7 days)?
A: 133 ng·h/mL

Q: What about the half-life ([1]; 0.39 mg/kg PO daily x7 days) of the same compound?
A: 8.75 h

Q: What about the AUC(0-t) ([1]; 1.56 mg/kg PO daily x7 days) of the same compound?
A: 21.3 ng·h/mL

Q: And the Cmax ([1]; 1.56 mg/kg PO daily x7 days)?
A: 10.9 ng/mL

Q: What about the Tmax ([1]; 1.56 mg/kg PO daily x7 days) of the same compound?
A: 4 h

Q: What about the concentration at 2 h ([1]; 1.56 mg/kg PO daily x7 days) of the same compound?
A: 3.93 ng/mL

Q: What about the concentration at 3 h ([1]; 1.56 mg/kg PO daily x7 days) of the same compound?
A: 8.2 ng/mL

Q: What about the concentration at 4 h ([1]; 1.56 mg/kg PO daily x7 days) of the same compound?
A: 7.8 ng/mL

Q: And the concentration at 5 h ([1]; 1.56 mg/kg PO daily x7 days)?
A: 7.76 ng/mL

Q: And the AUC ([1]; 1.56 mg/kg PO daily x7 days)?
A: 231 ng·h/mL

Q: What about the half-life ([1]; 1.56 mg/kg PO daily x7 days) of the same compound?
A: 21.2 h

Q: What about the AUC(0-t) ([1]; 6.25 mg/kg PO daily x7 days) of the same compound?
A: 217 ng·h/mL

Q: And the Cmax ([1]; 6.25 mg/kg PO daily x7 days)?
A: 95 ng/mL

Q: What about the Tmax ([1]; 6.25 mg/kg PO daily x7 days) of the same compound?
A: 3.2 h

Q: What about the concentration at 2 h ([1]; 6.25 mg/kg PO daily x7 days) of the same compound?
A: 27 ng/mL

Q: What about the concentration at 3 h ([1]; 6.25 mg/kg PO daily x7 days) of the same compound?
A: 94.8 ng/mL

Q: What about the concentration at 4 h ([1]; 6.25 mg/kg PO daily x7 days) of the same compound?
A: 77.8 ng/mL

Q: What about the concentration at 5 h ([1]; 6.25 mg/kg PO daily x7 days) of the same compound?
A: 63.8 ng/mL

Q: And the AUC ([1]; 6.25 mg/kg PO daily x7 days)?
A: 609 ng·h/mL

Q: And the half-life ([1]; 6.25 mg/kg PO daily x7 days)?
A: 4.09 h

Q: And the AUC(0-t) ([1]; 25 mg/kg PO daily x7 days)?
A: 1570 ng·h/mL

Q: What about the Cmax ([1]; 25 mg/kg PO daily x7 days) of the same compound?
A: 711 ng/mL

Q: And the Tmax ([1]; 25 mg/kg PO daily x7 days)?
A: 3 h

Q: And the concentration at 2 h ([1]; 25 mg/kg PO daily x7 days)?
A: 401 ng/mL

Q: And the concentration at 3 h ([1]; 25 mg/kg PO daily x7 days)?
A: 711 ng/mL

Q: And the concentration at 4 h ([1]; 25 mg/kg PO daily x7 days)?
A: 487 ng/mL

Q: And the concentration at 5 h ([1]; 25 mg/kg PO daily x7 days)?
A: 366 ng/mL

Q: And the AUC ([1]; 25 mg/kg PO daily x7 days)?
A: 2770 ng·h/mL

Q: And the half-life ([1]; 25 mg/kg PO daily x7 days)?
A: 2.2 h

Q: Which “form of antagonist binding: inhibition of the TLR7 agonist JB6011” value (TLR7) does the source give for `CCCCNc1nc(NCCN2CCOCC2)c2nc(Cl)c(NCCN3CCOCC3)nc2n1` [JB6140] here?
A: comparable result
